System: chicken intestinal alkaline phosphatase
Assay: Feeding anti-intestinal alkaline phosphatase egg antibody to chicks with active vitamin D: plasma phosphorous
Type: in vivo, chicken (Single Comb White Leghorn chicks)
Conditions: leghorn chicks, 10 days
Procedure: Single Comb White Leghorn laying hens were used for antibody production (3 hens per peptide antigen). Chicken intestinal alkaline phosphatase was purchased from Worthington. To prepare a vaccine for each hen 0.5 mg of chicken intestinal alkaline phosphatase was diluted to a final concentration of 0.5 ml PBS and mixed with 0.5 ml of Freund's complete adjuvant (first injection) or incomplete adjuvant (booster vaccination) to form a water in oil emulsification capable of holding a bead when dripped on ice water. The hen was then injected in four sites (each leg and each breast) with 0.25 ml of the vaccine emulsion intramuscularly. The booster injection in incomplete adjuvant occurred 7 days later.
In approximately 30 day lots, egg yolks from each hen were separated from whole eggs, mixed and lyophilized. Dried egg yolk powder containing the antibody was stored at room temperature until use in animal feeding studies.
The chicken model used in this study was described by Biehl and Baker, J. Nutr. 1997, 127:2054-2059 with the exception of antibodies to intestinal alkaline phosphatas. The negative control used in this study was a Pi deficient diet (Pi=inorganic phosphate which are largely mineral phosphates or phosphate from animal tissues and products such as milk and eggs), where the dietary phosphorous used was phytic phosphate. […]

With `C=C1/C(=C\C=C2/CCC[C@]3(C)[C@@H]([C@H](C)CCCC(C)C)CC[C@@H]23)C[C@@H](O)C[C@@H]1O` [Active vitamin D, 1α-hydroxyvitamin D3] as the compound, how does the “effect on plasma phosphorous levels (in words)” value (Pi deficient diet, antibody vs active vitamin D alone, vitamin D vs negative control) read?
The value was “increased blood phosphorous levels in comparison to the negative control”.

What about the “Plasma phosphate” value (Pi deficient phytic phosphorous diet, 1α-hydroxyvitamin D3 20 μg/kg diet alone or plus antibody 1 g/kg diet) of the same compound?
The value was 6.70 mg/dL.
